Reference: patent publication US20230364243A1, “CANCER-SELECTIVE TARGET DEGRADATION BY TARGETING GROUP CAGED PROTACS” (Beth Israel Deaconess Medical Center, Inc., priority 2021, published 2023)
Each block holds one compound with its values, some of them ahead of it.

Legend:
[1] = test system: HeLa cells; test: Cell viability of HeLa cells (CCK-8 cell proliferation assay); type: cell-based; conditions: 72 hours
Description: (§1) Cell in 96-well plates were treated with drugs as indicated, and then incubated with 10 μl/well of CCK-8 (cell counting Kit-8) solution at for 1-2 hours, followed by the measurement of optical density at 450 nm.

[2] = test system: HFF-1 cells; test: Cell viability of HFF-1 normal cells (CCK-8 cell proliferation assay); type: cell-based, human; conditions: 72 hours
Description: as §1

[3] = target: Flag-tagged cereblon (CRBN) (Homo sapiens, UniProt Q96SW2); test: Streptavidin pulldown competition with biotinylated pomalidomide for Flag-CRBN; type: binding; conditions: for competition with biotinylated-pomalidomide to bind CRBN E3 ubiquitin ligase: caged, inert form, HEK293T cell lysis, 1 hour
Description: Streptavadin pull down assays were performed on cell lysis derived from HEK293T (kidney) cells. Cell lysis was incubated with biotin or biotin-POMA, with or without pomalidomide, FA-S2_POMA or FA-C2-POMA for 1 hour. Additionally, some cell lysates had been pretreated with GSH.
The streptavidin pulldown assay for biotin-pomalidomide was performed as previous reported. Briefly, Flag-CRBN was expressed in HEK293T cells lysed in PROTAC buffer B (50 mM Tris-HCl pH7.5, 150 mM NaCl and 0.5% NP-40) supplemented with protease inhibitors (Pierce) and phosphatase inhibitors (phosphatase inhibitor cocktail set I and II, Calbiochem). A total of 1 mg of cell lysate was incubated with 10 μl of 10 mM biotin-pomalidomide and 8 μl of streptavidin beads for 1 hour at 4° C. in the absence or presence of pomalidomide or its derivates. Alternatively, Folate-S2-pomalidomide or Folate-C2-pomalidomide were incubated with 5 mM GSH and then subjected to the competition bindingassay. Then, the beads were washed four times with NETN buffer (20 mM Tris-HCl pH 7.5, pH 8.0, 100 mM NaCl, 1 mM EDTA and 0.5% NP-40), before being resolved by SDS-PAGE and immunoblotted with Flag-tag antibody.

[4] = target: T1, IKZF3 (Homo sapiens, UniProt Q9UKT9); test: Western blotting of IKZF3 in MM.1S cells; type: cell-based; conditions: FOLR1-positive MM.1S cells, 12 hours
T1 construct: endogenous in cells; host or cells: MM.1S (also MM.1S-CRBN+/+ and CRBN-/-)
Description: (§2) For folic acid competitive degradation assay, cells were pretreated with folic acid (F8758, Sigma-Aldrich, 2.5 mM) for 2 hours, followed by the treatment of indicated PROTACs for indicated time. […] For proteasome or E3 ligase inhibition assay, cells were treated with MG132 (BML-P11020, ENZO Life Sciences, 10 μM) or MLN4924 (S7109, SelleckChem, 1 μM) another 12 hours.
(§3) Cells were lysed in EBC buffer (50 mM Tris-HCl pH 7.5, 120 mM NaCl and 0.5% NP-40) supplemented with protease inhibitors (Pierce) and phosphatase inhibitors (phosphatase inhibitor cocktailset I and II, Calbiochem). The protein concentrations of the lysates were measured using the Bio-Rad protein assay reagent on a Beckman Coulter DU-800 spectrophotometer. The lysates (40 μg protein) werethen resolved by 10% SDS-olyacrylamide gel electrophoresis (PAGE) at 130 V for 80 min and immunoblotted with indicated antibodies at 4° C. overnight, washed four times with Tris-buffered saline with 0.1% Tween-20 (TBST) buffer, incubated with secondary antibody for 1 hour at room temperature, and then washed 4 times with TBST.

[5] = test system: MM.1S cells; test: Cell viability / proliferation of MM.1S cells (CCK-8); type: cell-based; conditions: for IC50: Homo sapiens, MM1.S
Description: (§4) For folic acid competitive degradation assay, cells were pretreated with folic acid (F8758, Sigma-Aldrich, 2.5 mM) for 2 hours, followed by the treatment of indicated PROTACs for indicated time. For endocytosis inhibition, cells were pretreated with Pitostop 2 (SML1169, Sigma-Aldrich, 1-30 μM) or MCD (21633, Cayman, 0.03-1 mM) for 12 hours, followed by co-treatment with indicated PROTACs for another 12 hours. For proteasome or E3 ligase inhibition assay, cells were treated with MG132 (BML-P11020, ENZO Life Sciences, 10 μM) or MLN4924 (S7109, SelleckChem, 1 μM) another 12 hours. For GSH-stimulating assay, cells were treated with S-Acetyl-GSH (29624, Cayman, 1 mM) with indicated PROTACs for 12 or 72 hours.
as §1

[6] = Release of active compound after incubation with DTT in PBS at 37° C., HPLC analysis; type: physicochemical; conditions: DTT (2 equiv), 37° C. in PBS, HPLC
Description: FA-S2-POMA and the negative control FA-C2-POMA were incubated with dithiothreitol (DTT) under physiological conditions (37° C. in phosphate buffered saline (PBS)) and then subjected to HPLC analysis.
The effects of these folate caged PROTACS on ALK fusion protein degradation was assessed in cancer cells. FA-S2-MS4048 and FA-C2-MS4048 were incubated with DTT at 37° C. in PBS. […] Furthermore, compared to FA-S2-POMA (FIG. 11B), the release rate of FA-S2-MS4048 is slower.

[7] = target: T2, IKZF1 (Homo sapiens, UniProt Q13422+Q96SW2); test: Western blotting of IKZF1 in SU-DHL-1 cells; type: cell-based; conditions: FOLR1-positive SU-DHL-1 cells, 12 hours
T2 construct: endogenous in cells; host or cells: SU-DHL-1
Description: as §3

[8] = target: T3, IKZF3 (Homo sapiens, UniProt Q96SW2+Q9UKT9); test: Western blotting of IKZF3 in MM.1S cells; type: cell-based; parameters: endogenous in cells; host or cells: MM.1S (also MM.1S-CRBN+/+ and CRBN-/-); conditions: for effect on degrading IKZF3 after depletion of endogenous CRBN E3 ubiquitin ligase: CRBN knockout
Description: as §2, §3

[9] = target: T4, BRD4 (Homo sapiens, UniProt O60885); test: Western blot analysis of BRDs protein levels in HeLa cells; type: cell-based
T4 construct: endogenous in cells; host or cells: HeLa

[10] = test system: BRDs; test: Western blot analysis of BRDs in OVCAR-8 ovary cancer cells; type: cell-based; conditions: OVCAR-8 cells
Description: (§5) Cells were lysed in EBC buffer (50 mM Tris pH 7.5, 120 mM NaCl, 0.5% NP-40) supplemented with protease inhibitors (Pierce) and phosphatase inhibitors (phosphatase inhibitor cocktail set I and II, Calbiochem). The protein concentrations of the lysates were measured using the Bio-Rad protein assay reagent on a Beckman Coulter DU-800 spectrophotometer. The lysates were then resolved by SDS-PAGE and immunoblotted with indicated antibodies.
as §3

[11] = test system: MEK1 and MEK2; test: Western blot analysis of MEK1 and MEK2 levels in HT29 and SK-MEL-28 cells; type: cell-based
Description: as §4, §5, §3

[12] = test system: HT-29 cells; test: Cell viability of HT-29 cells (CCK-8); type: cell-based; conditions: 72 hours
Description: as §1

[13] = test system: SK-MEL-28 cells; test: Cell viability of SK-MEL-28 cells (CCK-8); type: cell-based; conditions: 72 hours
Description: as §1

[14] = target: T3, IKZF3; test: Western blotting of IKZF3 in FOLR1-negative THP-1 cells; type: cell-based; parameters: endogenous in cells; conditions: 12 hours
Description: as §3

- competition with biotinylated-pomalidomide to bind CRBN E3 ubiquitin ligase [3]: not compete
- degradation of IKZF3 [4]: ineffective in degrading IKZF3
- IC50 ([5]; 72 hours): 62300 nM
Compound: Nc1nc2ncc(CNc3ccc(C(=O)N[C@@H](CCC(=O)NCc4cn(CCCCCCOC(=O)N5C(=O)CCC(N6C(=O)c7cccc(N)c7C6=O)C5=O)nn4)C(=O)O)cc3)nc2c(=O)[nH]1 (stereo partly drawn) [FA-C2-POMA, N^5-((1-(6-((3-(4-amino-1,3-dioxoisoindolin-2-yl)-2,6-dioxopiperidine-1-carbonyl)oxy)hexyl)-1H-1,2,3-triazol-4-yl)methyl)-N^2-(4-(((2-amino-4-oxo-3,4-dihydropteridin-6-yl)methyl)amino)benzoyl)-L-glutamine]

- release of pomalidomide after addition of DTT [6]: efficient release of pomalidomide
- competition with biotinylated-pomalidomide to bind CRBN E3 ubiquitin ligase [3]: not compete
- release of active pomalidomide upon treatment with reducing agent GSH (pulldown) ([3]; pretreated with GSH): can release pomalidomide
- degradation of IKZF3 [4]: degraded IKZF3 or IKZF1
- degradation of IKZF1 [7]: degraded IKZF3 or IKZF1
- IC50 ([5]; 72 hours): 1000 nM
- effect on degrading IKZF3 with co-treatment of folic acid ([8]; MM.1S cells, 2.5 mM folic acid): effectively antagonized the effect
- effect on degrading IKZF3 after depletion of endogenous CRBN E3 ubiquitin ligase ([8]; MM.1S cells): completely abolished the effect
- potency in degrading IKZF3 after pretreatment with S-Ac-GSH ([8]; MM.1S cells, S-Ac-GSH 1 mM): significantly increased the potentcy
- effect on degradation of IKZF3 with MG132 or MLN4924 ([8]; MM.1S cells, proteasome inhibitor MG132 or neddylation inhibitor MLN4924): blocked the effect
- effect on degrading IKZFs with endocytosis inhibitor pitstop 2 or MβCD ([8]; co-treatment with pitstop 2 or methyl-β-cyclodextrin (MβCD)): compromised the effect
Compound: Nc1nc2ncc(CNc3ccc(C(=O)N[C@@H](CCC(=O)NCc4cn(CCSSCCOC(=O)N5C(=O)CCC(N6C(=O)c7cccc(N)c7C6=O)C5=O)nn4)C(=O)O)cc3)nc2c(=O)[nH]1 (stereo partly drawn) [FA-S2-POMA, N^5-((1-(2-((2-((3-(4-amino-1,3-dioxoisoindolin-2-yl)-2,6-dioxopiperidine-1-carbonyl)oxy)ethyl)disulfanyl)ethyl)-1H-1,2,3-triazol-4-yl)methyl)-N^2-(4-(((2-amino-4-oxo-3,4-dihydropteridin-6-yl)methyl)amino)benzoyl)-L-glutamine]
- potency in inhibiting proliferation after pretreatment with S-Ac-GSH ([5]; S-Ac-GSH 1 mM): significantly increased potency
- potency for suppression of proliferation with co-treatment of folic acid ([5]; folic acid co-treatment, 72 hours): significant reduction in potency

- effect in degrading BRD4 after pretreatment with endocytosis inhibitor MβCD ([9]; HeLa cells pretreated with MβCD): efficiently blocked the effect
Compound: Cc1ncsc1-c1ccc([C@H](C)NC(=O)[C@@H]2C[C@@H](OC(=O)CCCCn3cc(CNC(=O)CC[C@H](NC(=O)c4ccc(NCc5cnc6nc(N)[nH]c(=O)c6n5)cc4)C(=O)O)nn3)CN2C(=O)[C@@H](NC(=O)COCCCOCCNC(=O)C[C@@H]2N=C(c3ccc(Cl)cc3)c3c(sc(C)c3C)-n3c(C)nnc32)C(C)(C)C)cc1 [Folate-ARV-771]

Continued, compound first:

Compound: Cc1ncsc1-c1ccc([C@H](C)NC(=O)[C@@H]2C[C@@H](O)CN2C(=O)[C@@H](NC(=O)COCCCOCCNC(=O)C[C@@H]2N=C(c3ccc(Cl)cc3)c3c(sc(C)c3C)-n3c(C)nnc32)C(C)(C)C)cc1 [ARV-771]
- IC50 [1]: 183 nM
- IC50 [2]: 1100 nM

Compound: Cc1ncsc1-c1ccc([C@H](C)NC(=O)[C@@H]2C[C@@H](NC(=O)CCCCn3cc(CNC(=O)CC[C@H](NC(=O)c4ccc(NCc5cnc6nc(N)[nH]c(=O)c6n5)cc4)C(=O)O)nn3)CN2C(=O)[C@@H](NC(=O)COCCCOCCNC(=O)C[C@@H]2N=C(c3ccc(Cl)cc3)c3c(sc(C)c3C)-n3c(C)nnc32)C(C)(C)C)cc1 [Folate-ARV-771N]
- degrading BRDs ([9]; HeLa cells, even at 100 nM): incapable of degrading BRDs
- degradation of BRDs [10]: but not Folate-ARV-771N, degraded BRDs

Compound: Cc1ncsc1-c1ccc([C@H](C)NC(=O)[C@@H]2C[C@@H](OC(=O)CCCCn3cc(CNC(=O)CC[C@H](NC(=O)c4ccc(NCc5cnc6nc(N)[nH]c(=O)c6n5)cc4)C(=O)O)nn3)CN2C(=O)[C@@H](NC(=O)CCCCCCCCCCNCCCONC(=O)c2ccc(F)c(F)c2Nc2ccc(I)cc2F)C(C)(C)C)cc1 [Folate-MS432, N^2-(4-(((2-amino-4-oxo-3,4-dihydropteridin-6-yl)methyl)amino)benzoyl)-N^5-((1-(5-(((3R,5S)-1-((S)-2-(11-((3-((3,4-difluoro-2-((2-fluoro-4-iodophenyl)amino)benzamido)oxy)propyl)amino)undecanamido)-3,3-dimethylbutanoyl)-5-(((S)-1-(4-(4-methylthiazol-5-yl)phenyl)ethyl)carbamoyl)pyrrolidin-3-yl)oxy)-5-oxopentyl)-1H-1,2,3-triazol-4-yl)methyl)-L-glutamine]
- degradation of MEK1 and MEK2 ([11]; HT29 and SK-MEL-28 cells, dose- and time-dependent): degraded MEK1 and MEK2
- effect in degrading MEK1 and MEK2 after pretreatment of folic acid ([11]; HT-29 and SK-MEL-28 cells, folic acid pretreatment): blocked the effect
- degradation of MEK1/2 after pretreatment with VHL ligand Ac-VHL ([11]; HT-29 cells, Ac-VHL pretreatment): blocked the degradation of MEK1/2
- IC50 ([12]; Homo sapiens): 436 nM
- IC50 ([13]; Homo sapiens): 390 nM

Compound: Cc1ncsc1-c1ccc([C@H](C)NC(=O)[C@@H]2C[C@@H](O)CN2C(=O)[C@@H](NC(=O)CCCCCCCCCCNCCCONC(=O)c2ccc(F)c(F)c2Nc2ccc(I)cc2F)C(C)(C)C)cc1 [MS432, reference compound]
- IC50 [12]: 176 nM
- IC50 [13]: 32.4 nM

Compound: Nc1cccc2c1C(=O)N(C1CCC(=O)NC1=O)C2=O (stereo not drawn) [pomalidomide, reference compound]
- degradation of IKZF3 [4]: degrade IKZF3 or IKZF1
- degradation of IKZF1 [7]: degrade IKZF3 or IKZF1
- IC50 ([5]; 72 hours): 58 nM
- degradation of IKZF3 [14]: degrade IKZF3 or IKZF1
- effect on degrading IKZF3 after depletion of endogenous CRBN E3 ubiquitin ligase ([8]; MM.1S cells): completely abolished the effect
